Reference: patent US20060189699A1, “Antimicrobial trinervitane derivatives” (Commonwealth Scientific and Industrial Researh Org, priority 2003, published 2006)
Entries after “also recorded” stand apart in the source; their conditions may differ. Like-named read-outs stand apart in the source and are kept apart here.

Columns and labels:
[1] = tested on: Bacillus subtilis (ATCC Strain 6633); assay: modified agar bioassay for weak antimicrobial activity (clear zone); format: cell-based; settings: for level of antimicrobial activity relative to trinervitadienes previously isolated from N. triodiae: screening assays, qualitative, potency not determined quantitatively
Protocol: Extracts of the worker and soldier castes of the nasute termite species Nasutitermes exitiosus (Hill) (Isoptera:Termitidae) were screened against Bacillus subtilis (ATCC Strain 6633) at a concentration of 4.0 mg/ml in a bioassay. […] The only difference between the assay used in the current work and that described previously (WO 01/90035) is that in the current case the density of bacterial cells in the Luria-Bertani agar medium was ten times lower than that described in the earlier specification.
Twelve mL of a 70% methanol extract of N. exitiosus soldiers (containing 86 mg of solute) was fractionated by reverse-phase HPLC using a semi-preparative column at a flow rate of 4 ml/min and a gradient from water containing 0.05% (v/v) trifluroacetic acid to 100% acetonitrile over 20 minutes and then 100% acetonitrile for a further 15 minutes. The UV absorbance of the eluant was monitored at 230 nm. Fractions were collected over 35 minutes. Corresponding fractions were pooled across replicate separation runs and the pooled fractions were evaporated to dryness under nitrogen. Residues of the fractions were redissolved in HPLC grade water (fractions from 1-8 minutes), 70% aqueous methanol (9-15 minutes), or methanol (16-35 minutes).

Bacillus subtilis = settings: WO 01/90035, as compound 9; cited from earlier work
[2] = isolated HPLC sub-fractions / purified compounds
[3] = purified components of fraction F2, modified antimicrobial assay

Row | Compound | antimicrobial / biological activity [1, 2] | level of antimicrobial activity relative to trinervitadienes previously isolated from N. triodiae [1] | antimicrobial / biological activity [1] | clear zone diameter ([1]; pooled reverse-phase HPLC fractions of soldier extract, quantity corresponding to 20 μL of crude extract) [mm] | clear zone diameter [1, 3] [mm] | antimicrobial activity shown in the earlier patent specification (Bacillus subtilis)
1 | 1(15),8(9)-trinervitadiene-3α-ol-2-one | biologically active; also recorded: antimicrobial compound; also recorded: confirmed | qualitatively similar levels of antimicrobial activity | – | – | – | –
2 | 1(15),8(19)-trinervitadiene-2β,3α,9α-triol 2,3,9-triacetate [U] | – | qualitatively similar levels of antimicrobial activity | biologically active; also recorded: antimicrobial activity; also recorded: confirmed | – | – | –
3 | C=C1/C2=C\C[C@@H](C)C/C=C/C(=C)[C@@H]3CC[C@@](C)([C@H]13)[C@@H](O)[C@@H]2O [P, 9E-1(14),8(19),9(10),15(17)-trinervitatetraene-2β,3α-diol] | – | qualitatively similar levels of antimicrobial activity | – | 4 | – | –
4 | C=C1/C2=C\C[C@@H](C)CCCC(=C)[C@@H]3CC[C@@](C)([C@H]13)[C@@H](O)[C@@H]2O [Q, 1(14),8(19),15(17)-trinervitatriene-2β,3α-diol] | biologically active | qualitatively similar levels of antimicrobial activity | – | – | 4 | –
5 | C=C1/C2=C\C[C@@H](C)CCC/C(C)=C3/CC[C@@](C)([C@H]13)[C@@H](O)[C@@H]2O [R, 1(14),7(8),15(17)-trinervitatriene-2β,3α-diol] | biologically active | qualitatively similar levels of antimicrobial activity | – | – | 5 | –
6 | C/C1=C/CC[C@H](C)CCC2C(C)[C@@H]3C1CC[C@]3(C)[C@@H](O)[C@@H]2O (stereo partly drawn) [S, 1(15),8(9)-trinervitadiene-2β,3α-diol] | biologically active; also recorded: confirmed | – | – | – | – | antimicrobial activity
